Columns and labels:
[1] = Stability in dark plastic or glass vials (light sensitivity); assay type: physicochemical
Source text: Accordingly, one of the ways to further improve or increase stability of SkQ liquid compositions during storage and transportation is to protect it from light.

endothelial cells = experiment: TNFα-caused dysfunction of endothelial barrier (microscopy of VE-cadherin, beta-cathenin, F-actin); assay type: cell-based
NFκB = NFκB activation caused by TNFα; assay type: cell-based
Source text: Additionally, SkQ1 decreases the phosphorylation and degradation of IkBa caused by TNFα. NFκB is known to be permanently active in many inflammatory diseases, such as inflammatory bowel disease, arthritis, sepsis, gastritis, asthma and atherosclerosis (Monaco et al. (2004) PNAS., 101:5634-9).

[2] = test system: collagen-induced arthritis; experiment: Collagen-induced arthritis (CIA); assay type: in vivo, Wistar rats; settings: SkQ1 in water 250 nmol/kg per day from day 14 or day 24 after collagen injection
Protocol: Thirty Wistar rats with free food and water access were injected with complete Freund adjuvant and 250 mg type II collagen to induce CIA. Starting from 14 d and from 24 d after injection, two groups of 10 animals in each were daily fed with pharmaceutical form of SkQ1 in water comprising 250 nmol/kg body weight per day (groups “SkQ1 from day 14” and “SkQ1 from day 24”; Group “Control” received water without drugs).

ICAM-1 mRNA expression = ICAM-1 mRNA expression induced by TNF-α in EAhy926 cells (real-time PCR); assay type: cell-based, human; settings: 0.2 nM for 4 d; TNF-α 0.05 ng/ml for 4 h
Source text: The effects of SkQ1 on ICAM-1 mRNA expression and cytokines (IL-6, IL-8) protein secretion induced by TNF-α in EAhy926 human endothelial cells (ATCC collection; catalog number CRL-2922) were examined. TNF-α is a central proinflammatory cytokine stimulating expression of cell adhesion molecules and many inflammatory cytokines. Anti-inflammatory properties of many drugs often rely on their ability to inhibit expression of pro-inflammatory cytokines induced by TNF-α using EAhy926 endothelial cells (Edgell et al. (1983) Proc. Natl. Acad. Sci. USA, 80:3734-7; Lombardi et al. (2009) Eur. J. Cell. Biol., 88:731-42; Manea et al. (2010) Cell Tissue Res., 340:71-9).
300,000 cells were plated on 60 mm^2 culture dishes and after attachment were treated with an SkQ1 solution (0.2 nM in DMEM medium with 10% fetal serum) for 4 d, and then stimulated with TNF-α (0.05 ng/ml for 4 h for ICAM-1 or 5 ng/ml for 15 h for cytokines, respectively). ICAM-1 mRNA expression was determined by real-time PCR (Okada et al. (2005) Invest. Ophtalmol. Vis. Sci., 46:4512-8). Secretion of IL-6 and IL-8 was evaluated by ELISA (Toma et al. (2009) Biochem. Biophys. Res. Commun., 390:877-82; Volanti et al. (2002) Photochem. Photobiol., 75:36-45.) The data is shown as means±S.E. at least for 3 separate experiments.

[3] = Storage stability of oxidized SkQ1 formulations (Example 8); assay type: physicochemical
Protocol: The stability of SkQ1 in the prepared solution was investigated by storage at RT and at 60° C. (Table 4).
The stability of SkQ1 in the prepared solution was investigated by storage at 60° C. (Table 5).
The stability of SkQ1 in the prepared composition was investigated by storage at 4° C. in darkness (Table 6).
The stability of SkQ1 in the prepared composition was investigated by storage at 60° C. in darkness (Table 7).
The stability of SkQ1 in the prepared composition was investigated by storage at RT in darkness (Table 8).
The stability of SkQ1 in the prepared composition was investigated by storage at 60° C. in darkness (Table 9).
The stability of SkQ1 in the prepared composition was investigated by storage at RT in darkness (Table 10).
The stability of SkQ1 in the prepared composition was investigated by storage at 60° C. in darkness (Table 11).

[4] = test system: human endothelial cells EA.hy926; experiment: TNF-α induced death of endothelial cells (MTT test); assay type: cell-based; settings: 2 nM pre-incubation 4 d; TNF-α 0.25 to 50 ng/ml for 2 d
Protocol: Human endothelial cell line EA.hy926 (ATCC Collection; catalog number CRL-2922) was used as a model of vascular endothelium. This cell line is similar to primary HUVEC cell line (Edgell et al. (1983) PNAS, 80(12):3734-7; Edgell et al. (1990) In Vitro Cell Dev Biol., 26(12):1167-72) and widely used as a relevant model for inflammation studies (Riesbeck et al. (1998) Clin. Vaccine Immunol., 5:5675-682).
Accordingly, human endothelial cells EA.hy926 were pre-incubated with 0.2 nM SkQR1 or 2 nM SkQ1 solution in Dulbecco's Modified Eagle's Medium (DMEM) supplemented with 10% of fetal serum (Example 1) for 4 d. After that the cells were incubated overnight with fresh DMEM medium with 0.2% of fetal serum. The cells were incubated 2 d with TNF-α (0.25 ng/ml to 50 ng/ml) and cell death was monitored using standard MTT test (Berridge et al. (1996) Biochemica, 4:14-9). The data from this assay is shown as means±S.E. at least for 3 separate experiments.

CC1=C(C)C(=O)C(CCCCCCCCCC[P+](c2ccccc2)(c2ccccc2)c2ccccc2)=CC1=O [SkQ1]
stability [1]: significantly increased | disassembling of intracellular contacts and cytoskeleton reorganization caused by TNFα (endothelial cells): prevented | activation of NFκB (NFκB): prevent activation | phosphorylation and degradation of IkBa caused by TNFα (NFκB): decreases | translocation of transcription factor p65 (RelA) from the cytoplasm to the nucleus (NFκB): prevent translocation | number of animals with apparent inflammation (increased paw volumes) [2]: reduced | expression of ICAM-1 (ICAM-1 mRNA expression): prevents excessive expression | SkQ1, % ([3]; SkQ1 1 mM in 20% glycerol, phosphate buffer pH 4.77, stored at 60° C., day 0): 99.34% | SkQ1, % ([3]; SkQ1 1 mM in 20% glycerol, phosphate buffer pH 4.77, stored at 60° C., day 19): 95.30% | SkQ1, % ([3]; SkQ1 1 mM in 20% glycerol, phosphate buffer pH 4.77, stored at RT, day 0): 99.34% | SkQ1, % ([3]; SkQ1 1 mM in 20% glycerol, phosphate buffer pH 4.77, stored at RT, day 11): 99.71% | SkQ1, % ([3]; SkQ1 1 mM in 20% glycerol, phosphate buffer pH 4.77, stored at RT, day 13): 99.76% | SkQ1, % ([3]; SkQ1 1 mM in 20% glycerol, phosphate buffer pH 4.77, stored at RT, day 14): 99.68% | SkQ1, % ([3]; SkQ1 1 mM in 20% glycerol, phosphate buffer pH 4.77, stored at RT, day 17): 99.62% | SkQ1, % ([3]; SkQ1 1 mM in 20% glycerol, phosphate buffer pH 4.77, stored at RT, day 19): 99.63% | SkQ1, % ([3]; SkQ1 1 mM in 20% glycerol, phosphate buffer pH 4.77, stored at RT, day 21): 99.52% | SkQ1, % ([3]; SkQ1 1 mM in 20% glycerol, phosphate buffer pH 4.77, stored at RT, day 24): 99.57% | SkQ1, % ([3]; SkQ1 1 mM in 20% glycerol, phosphate buffer pH 4.77, stored at RT, day 61): 99.49% | SkQ1, % ([3]; SkQ1 with PEG-4000, solid, 4° C. in darkness, day 18): >99.9% | SkQ1, % ([3]; SkQ1 with PEG-4000, solid, 4° C. in darkness, day 19): 99.83% | SkQ1, % ([3]; SkQ1 with PEG-4000, solid, 4° C. in darkness, day 20): 99.80% | SkQ1, % ([3]; SkQ1 with dextran and p-ABA, solid, 60° C. in darkness, day 0): 97.13% | SkQ1, % ([3]; SkQ1 with dextran and p-ABA, solid, 60° C. in darkness, day 6): 39.22% | SkQ1, % ([3]; SkQ1 with dextran and p-ABA, solid, 60° C. in darkness, day 15): 7.07% | SkQ1, % ([3]; SkQ1 with dextran, solid, 60° C. in darkness, day 0): 96.71% | SkQ1, % ([3]; SkQ1 with dextran, solid, 60° C. in darkness, day 6): 20.66% | SkQ1, % ([3]; SkQ1 with dextran, solid, 60° C. in darkness, day 15): 24.14% | SkQ1, % ([3]; SkQ1 with dextran, solid, 60° C. in darkness, day 25): 18.93% | SkQ1, % ([3]; SkQ1 with myoinosite, solid, RT in darkness, day 0): 95.88% | SkQ1, % ([3]; SkQ1 with myoinosite, solid, RT in darkness, day 5): 96.86% | SkQ1, % ([3]; SkQ1 with myoinosite, solid, RT in darkness, day 6): 95.99% | SkQ1, % ([3]; SkQ1 with myoinosite, solid, RT in darkness, day 15): 92.26% | SkQ1, % ([3]; SkQ1 with p-aminobenzoic acid (p-ABA), solid, RT in darkness, day 0): 100% | SkQ1, % ([3]; SkQ1 with p-aminobenzoic acid (p-ABA), solid, RT in darkness, day 30): 58.42% | SkQ1, % ([3]; presumably SkQ1 in 50% 1,2-propylene glycol with lactic acid (10 eq), 60° C., day 0): >99.9% | SkQ1, % ([3]; presumably SkQ1 in 50% 1,2-propylene glycol with lactic acid (10 eq), 60° C., day 72): 96.6% | SkQ1, % ([3]; presumably SkQ1 in 50% 1,2-propylene glycol with pyruvic acid (10 eq), 60° C., day 0): >99.9% | SkQ1, % ([3]; presumably SkQ1 in 50% 1,2-propylene glycol with pyruvic acid (10 eq), 60° C., day 72): 93.2% | cell death compared to control without MTA [4]: greatly reduced

From patent US9572890B2, “Oral formulations of mitochondrially-targeted antioxidants and their preparation and use” (MITOTECH SA, priority 2011, dated 2017)
